Type in all cases: functional
Common to all, as to conditions: 144 h, read-out: GI

The subject of experiment [1] is Amaranthus retroflexus. In words: Herbicidal activity against Amaranthus retroflexus assessed as inhibition of root growth at 100 ppm after 6 days by flat-utensil method relative to control.
In experiment [2] the test system is Amaranthus retroflexus. Kind of experiment: Herbicidal activity against Amaranthus retroflexus assessed as inhibition of stalk growth at 100 ppm after 6 days by flat-utensil method relative to control.
Experiment [3] deals with Amaranthus retroflexus. In words: Herbicidal activity against Amaranthus retroflexus assessed as inhibition of root growth at 50 ppm after 6 days by flat-utensil method relative to control.
For experiment [4], the system named is Amaranthus retroflexus. Kind of experiment: Herbicidal activity against Amaranthus retroflexus assessed as inhibition of stalk growth at 50 ppm after 6 days by flat-utensil method relative to control.
Experiment [5] has as its system Chenopodium ficifolium. In words: Herbicidal activity against Chenopodium ficifolium assessed as inhibition of root growth at 100 ppm after 6 days by flat-utensil method relative to control.
Experiment [6] has as its system Chenopodium ficifolium. In words: Herbicidal activity against Chenopodium ficifolium assessed as inhibition of stalk growth at 100 ppm after 6 days by flat-utensil method relative to control.
The subject of experiment [7] is Chenopodium ficifolium. In words: Herbicidal activity against Chenopodium ficifolium assessed as inhibition of root growth at 50 ppm after 6 days by flat-utensil method relative to control.
For experiment [8], the system named is Chenopodium ficifolium. In words: Herbicidal activity against Chenopodium ficifolium assessed as inhibition of stalk growth at 50 ppm after 6 days by flat-utensil method relative to control.
For experiment [9], the system named is Digitaria sanguinalis. In words: Herbicidal activity against Digitaria sanguinalis (hairy crabgrass) assessed as inhibition of root growth at 100 ppm after 6 days by flat-utensil method relative to control.
Experiment [10] has as its system Digitaria sanguinalis. In words: Herbicidal activity against Digitaria sanguinalis (hairy crabgrass) assessed as inhibition of stalk growth at 100 ppm after 6 days by flat-utensil method relative to control.
The test system of experiment [11] is Digitaria sanguinalis. Kind of experiment: Herbicidal activity against Digitaria sanguinalis (hairy crabgrass) assessed as inhibition of root growth at 50 ppm after 6 days by flat-utensil method relative to control.
In experiment [12] the test system is Digitaria sanguinalis. In words: Herbicidal activity against Digitaria sanguinalis (hairy crabgrass) assessed as inhibition of stalk growth at 50 ppm after 6 days by flat-utensil method relative to control.
Experiment [13] concerns Sorghum bicolor. In words: Herbicidal activity against Sorghum bicolor assessed as inhibition of root growth at 100 ppm after 6 days by flat-utensil method relative to control.
Experiment [14] has as its system Sorghum bicolor. Kind of experiment: Herbicidal activity against Sorghum bicolor assessed as inhibition of stalk growth at 100 ppm after 6 days by flat-utensil method relative to control.
Experiment [15] concerns Sorghum bicolor. Kind of experiment: Herbicidal activity against Sorghum bicolor assessed as inhibition of root growth at 50 ppm after 6 days by flat-utensil method relative to control.
Experiment [16] deals with Sorghum bicolor. In words: Herbicidal activity against Sorghum bicolor assessed as inhibition of stalk growth at 50 ppm after 6 days by flat-utensil method relative to control.
Experiment [17] concerns Echinochloa crus-galli. In words: Herbicidal activity against Echinochloa crus-galli (barnyard grass) assessed as inhibition of root growth at 100 ppm after 6 days by flat-utensil method relative to control.
Experiment [18] concerns Echinochloa crus-galli. Kind of experiment: Herbicidal activity against Echinochloa crus-galli (barnyard grass) assessed as inhibition of stalk growth at 100 ppm after 6 days by flat-utensil method relative to control.
Experiment [19] deals with Echinochloa crus-galli. Kind of experiment: Herbicidal activity against Echinochloa crus-galli (barnyard grass) assessed as inhibition of root growth at 50 ppm after 6 days by flat-utensil method relative to control.
The test system of experiment [20] is Echinochloa crus-galli. In words: Herbicidal activity against Echinochloa crus-galli (barnyard grass) assessed as inhibition of stalk growth at 50 ppm after 6 days by flat-utensil method relative to control.

In the case of `Cc1cc(Cl)n2s/c(=N\C(=O)[C@H](c3ccc(Cl)cc3)C(C)C)nc2n1`, the inhibition of growth at 100 ppm with Amaranthus retroflexus [1] was 100%; in the experiment with Amaranthus retroflexus [2], 100%; in the experiment on Chenopodium ficifolium [5], 90%; with Chenopodium ficifolium [6] it was 85%; in the experiment on Digitaria sanguinalis [9], 40%; in the experiment with Digitaria sanguinalis [10] it was 30%. Also, the inhibition of growth at 100 ppm in the experiment on Sorghum bicolor [13] turned out to be 40%; in the experiment with Sorghum bicolor [14], 20%; in the experiment on Echinochloa crus-galli [17] it was 90%; in the experiment with Echinochloa crus-galli [18], 30%. Besides, the inhibition of growth at 50 ppm in the experiment with Amaranthus retroflexus [3] worked out at 85%; in the experiment with Amaranthus retroflexus [4], 90%; in the experiment with Chenopodium ficifolium [7], 80%; in the experiment with Chenopodium ficifolium [8] it was 80%; in the experiment on Digitaria sanguinalis [11], 30%; in the experiment on Digitaria sanguinalis [12] it was 30%. Further, the inhibition of growth at 50 ppm stood at 20% in the experiment with Sorghum bicolor [15], 10% in the experiment on Sorghum bicolor [16], 70% with Echinochloa crus-galli [19] and 10% in the experiment with Echinochloa crus-galli [20].
Take `CC(C)[C@H](C(=O)/N=c1/nc2nc(Cl)cc(Cl)n2s1)c1ccc(Cl)cc1`: the inhibition of growth at 100 ppm in the experiment on Amaranthus retroflexus [1] was determined as 80%; in the experiment with Amaranthus retroflexus [2] it was 75%; in the experiment on Chenopodium ficifolium [5], 60%; in the experiment with Chenopodium ficifolium [6] it was 40%; in the experiment on Digitaria sanguinalis [9], 0%; with Digitaria sanguinalis [10], 10%. Also, the inhibition of growth at 100 ppm stood at 20% with Sorghum bicolor [13], 30% with Sorghum bicolor [14], 50% in the experiment with Echinochloa crus-galli [17] and 75% with Echinochloa crus-galli [18]. Besides, the inhibition of growth at 50 ppm in the experiment with Amaranthus retroflexus [3] stood at 45%; with Amaranthus retroflexus [4], 50%; in the experiment with Chenopodium ficifolium [7], 30%; in the experiment on Chenopodium ficifolium [8] it was 20%; in the experiment on Digitaria sanguinalis [11], 0%; with Digitaria sanguinalis [12], 0%. The inhibition of growth at 50 ppm was 20% in the experiment with Sorghum bicolor [15], 20% with Sorghum bicolor [16], 30% with Echinochloa crus-galli [19] and 40% with Echinochloa crus-galli [20].
For the compound `COc1cc(OC)n2s/c(=N\C(=O)[C@H](c3ccc(Cl)cc3)C(C)C)nc2n1`, the inhibition of growth at 100 ppm with Amaranthus retroflexus [1] came to 95%; in the experiment with Amaranthus retroflexus [2], 80%; in the experiment with Chenopodium ficifolium [5] it was 90%; in the experiment on Chenopodium ficifolium [6], 90%; in the experiment with Digitaria sanguinalis [9], 80%; with Digitaria sanguinalis [10], 90%. Besides, the inhibition of growth at 100 ppm in the experiment with Sorghum bicolor [13] was found to be 50%; in the experiment with Sorghum bicolor [14], 40%; with Echinochloa crus-galli [17] it was 20%; in the experiment on Echinochloa crus-galli [18], 70%. In addition, the inhibition of growth at 50 ppm in the experiment with Amaranthus retroflexus [3] is 40%; in the experiment with Amaranthus retroflexus [4] it was 45%; with Chenopodium ficifolium [7], 90%; with Chenopodium ficifolium [8], 90%; in the experiment with Digitaria sanguinalis [11] it was 40%; in the experiment on Digitaria sanguinalis [12], 50%. Also, the inhibition of growth at 50 ppm in the experiment on Sorghum bicolor [15] was 20%; in the experiment with Sorghum bicolor [16], 25%; in the experiment on Echinochloa crus-galli [19], 20%; with Echinochloa crus-galli [20], 40%.
Regarding `Cc1cc(C)n2s/c(=N\C(=O)C(c3ccc(Cl)cc3)C(C)C)nc2n1` (racemic), the inhibition of growth at 100 ppm in the experiment with Amaranthus retroflexus [1] was found to be 50%; in the experiment on Amaranthus retroflexus [2] it was 20%; with Chenopodium ficifolium [5], 60%; with Chenopodium ficifolium [6], 70%; in the experiment with Digitaria sanguinalis [9], 70%; in the experiment on Digitaria sanguinalis [10], 60%. The inhibition of growth at 100 ppm was 0% in the experiment with Sorghum bicolor [13], 10% in the experiment on Sorghum bicolor [14], 10% in the experiment on Echinochloa crus-galli [17] and 25% in the experiment with Echinochloa crus-galli [18]. The inhibition of growth at 50 ppm in the experiment on Amaranthus retroflexus [3] came to 20%; in the experiment on Amaranthus retroflexus [4] it was 10%; in the experiment on Chenopodium ficifolium [7] it was 35%; in the experiment with Chenopodium ficifolium [8] it was 40%; with Digitaria sanguinalis [11], 30%; in the experiment on Digitaria sanguinalis [12] it was 40%. For the same compound, the inhibition of growth at 50 ppm turned out to be 0% in the experiment with Sorghum bicolor [15], 0% in the experiment on Sorghum bicolor [16], 0% in the experiment on Echinochloa crus-galli [19] and 20% in the experiment on Echinochloa crus-galli [20].
`COc1cc(OC)n2s/c(=N\C(=O)C(c3ccc(Cl)cc3)C(C)C)nc2n1` (racemic): the inhibition of growth at 100 ppm was 45% with Amaranthus retroflexus [1]; 30% in the experiment on Amaranthus retroflexus [2]; 50% in the experiment with Chenopodium ficifolium [5]; 50% in the experiment with Chenopodium ficifolium [6]; 60% in the experiment on Digitaria sanguinalis [9]; 60% in the experiment on Digitaria sanguinalis [10]. In addition, the inhibition of growth at 100 ppm with Sorghum bicolor [13] was 0%; with Sorghum bicolor [14], 20%; in the experiment with Echinochloa crus-galli [17], 0%; in the experiment with Echinochloa crus-galli [18] it was 30%. Moreover, the inhibition of growth at 50 ppm in the experiment on Amaranthus retroflexus [3] turned out to be 20%; in the experiment on Amaranthus retroflexus [4] it was 30%; in the experiment with Chenopodium ficifolium [7] it was 20%; in the experiment on Chenopodium ficifolium [8], 20%; with Digitaria sanguinalis [11] it was 30%; in the experiment with Digitaria sanguinalis [12], 35%. Further, the inhibition of growth at 50 ppm was found to be 0% with Sorghum bicolor [15], 10% with Sorghum bicolor [16], 0% in the experiment on Echinochloa crus-galli [19] and 30% in the experiment with Echinochloa crus-galli [20].
With `COc1cc(Cl)n2s/c(=N\C(=O)[C@H](c3ccc(Cl)cc3)C(C)C)nc2n1`, the inhibition of growth at 100 ppm in the experiment with Amaranthus retroflexus [1] was determined as 30%; in the experiment with Amaranthus retroflexus [2], 20%; in the experiment on Chenopodium ficifolium [5] it was 10%; with Chenopodium ficifolium [6] it was 20%; in the experiment with Digitaria sanguinalis [9], 10%; in the experiment with Digitaria sanguinalis [10] it was 10%. In addition, the inhibition of growth at 100 ppm in the experiment on Sorghum bicolor [13] turned out to be 80%; in the experiment with Sorghum bicolor [14], 80%; in the experiment with Echinochloa crus-galli [17] it was 100%; in the experiment on Echinochloa crus-galli [18], 70%. The inhibition of growth at 50 ppm with Amaranthus retroflexus [3] was 0%; with Amaranthus retroflexus [4], 0%; with Chenopodium ficifolium [7], 10%; in the experiment with Chenopodium ficifolium [8], 10%; with Digitaria sanguinalis [11] it was 0%; in the experiment with Digitaria sanguinalis [12] it was 0%. The inhibition of growth at 50 ppm with Sorghum bicolor [15] worked out at 60%; in the experiment on Sorghum bicolor [16] it was 60%; in the experiment on Echinochloa crus-galli [19] it was 80%; with Echinochloa crus-galli [20], 60%.
Turning to `Cc1cc(O)n2s/c(=N\C(=O)[C@H](c3ccc(Cl)cc3)C(C)C)nc2n1`, the inhibition of growth at 100 ppm in the experiment with Amaranthus retroflexus [1] is 90%; in the experiment on Amaranthus retroflexus [2], 95%; with Chenopodium ficifolium [5] it was 80%; in the experiment on Chenopodium ficifolium [6], 100%; in the experiment with Digitaria sanguinalis [9] it was 25%; with Digitaria sanguinalis [10], 10%. The inhibition of growth at 100 ppm in the experiment with Sorghum bicolor [13] worked out at 30%; in the experiment on Sorghum bicolor [14] it was 40%; in the experiment with Echinochloa crus-galli [17], 80%; in the experiment with Echinochloa crus-galli [18], 40%. Further, the inhibition of growth at 50 ppm in the experiment on Amaranthus retroflexus [3] is 50%; with Amaranthus retroflexus [4], 60%; with Chenopodium ficifolium [7], 50%; with Chenopodium ficifolium [8], 70%; with Digitaria sanguinalis [11], 20%; in the experiment on Digitaria sanguinalis [12], 10%. The inhibition of growth at 50 ppm with Sorghum bicolor [15] was 30%; with Sorghum bicolor [16], 35%; in the experiment on Echinochloa crus-galli [19], 70%; in the experiment on Echinochloa crus-galli [20], 30%.
For the compound `Cc1cc(C)n2s/c(=N\C(=O)[C@H](c3ccc(Cl)cc3)C(C)C)nc2n1`, the inhibition of growth at 100 ppm in the experiment with Amaranthus retroflexus [1] is 100%; in the experiment on Amaranthus retroflexus [2] it was 95%; in the experiment with Chenopodium ficifolium [5], 85%; with Chenopodium ficifolium [6] it was 80%; in the experiment on Digitaria sanguinalis [9] it was 80%; with Digitaria sanguinalis [10], 90%. In addition, the inhibition of growth at 100 ppm in the experiment with Sorghum bicolor [13] was found to be 20%; with Sorghum bicolor [14] it was 25%; with Echinochloa crus-galli [17], 30%; in the experiment on Echinochloa crus-galli [18] it was 80%. The inhibition of growth at 50 ppm in the experiment with Amaranthus retroflexus [3] was found to be 50%; in the experiment with Amaranthus retroflexus [4], 50%; with Chenopodium ficifolium [7], 50%; with Chenopodium ficifolium [8], 50%; in the experiment on Digitaria sanguinalis [11], 45%; in the experiment with Digitaria sanguinalis [12], 55%. In addition, the inhibition of growth at 50 ppm was 20% with Sorghum bicolor [15], 20% in the experiment on Sorghum bicolor [16], 30% in the experiment on Echinochloa crus-galli [19] and 50% with Echinochloa crus-galli [20].

For the origin of these results see ChEMBL document CHEMBL3045466, “Novel 2H-[1,2,4]thiadiazolo[2,3-a]pyrimidine derivatives bearing chiral S()-2-(4-chlorophenyl)-3-methylbutyric acid moiety: Design, synthesis and herbicidal activity” (2010).
